Results from ChEMBL document CHEMBL6114989, “D-morphinan analogs with favorable pharmacokinetic profiles as dual-acting antidepressants” (Eur J Med Chem, 2025).
Activity calls are given as the source filed them. No cut-off for these calls is given here.

How the values were obtained:
[1] = target: Sodium-dependent serotonin transporter (Homo sapiens, UniProt P31645)
HEK293 [2] = experiment: Nephrotoxicity against human HEK293 cells assessed as reduction in cell viability at 100 to 200 uM incubated for 48 hrs by celltiter-luminescence assay; assay type: toxicity, cell-based; settings: hek293, 48 h, dose 100-200 µM
[3] = AUC (0 to infinity) in ICR mouse at 10 mg/kg, po measured upto 24 hrs by LC-MS/MS analysis; assay type: ADME, organism-based; settings: in vivo
[4] = AUC (0 to t) in ICR mouse at 10 mg/kg, po measured upto 24 hrs by LC-MS/MS analysis; assay type: ADME, organism-based; settings: in vivo
[5] = Metabolic stability in human liver microsome assessed as hepatic extraction ratio in presence of NADPH measured upto 60 mins by LC-MS/MS analysis; assay type: ADME; settings: liver microsomes, read-out: ERH
[6] = Hepatotoxicity against human HepG2 cells assessed as reduction in cell viability at 100 to 200 uM incubated for 48 hrs by celltiter-luminescence assay; assay type: toxicity, cell-based; settings: hepg2, 48 h, dose 100-200 µM
Mus musculus [7] = experiment: Antidepressant activity in C57BL/6J mouse assessed as reduction in of immobility time at 20 mg/kg, ip by forced swim test; assay type: functional, organism-based
Mus musculus [8] = experiment: Antidepressant activity in ip dosed C57BL/6J mouse assessed as reduction in of immobility time by forced swim test; assay type: functional, organism-based; settings: dose 10-20 mg/kg
[9] = Nephrotoxicity against human HEK293 cells assessed as inhibition of cell proliferation incubated for 48 hrs by celltiter-luminescence assay; assay type: toxicity, cell-based
[10] = Metabolic stability in human liver microsome assessed as half life in presence of NADPH measured upto 60 mins by LC-MS/MS analysis; assay type: ADME; settings: liver microsomes
[11] = Metabolic stability in mouse liver microsome assessed as intrinsic clearance in presence of NADPH measured upto 60 mins by LC-MS/MS analysis; assay type: ADME; settings: liver microsomes, read-out: CLH
[12] = MRT (0 to t) in ICR mouse at 10 mg/kg, po measured upto 24 hrs by LC-MS/MS analysis; assay type: ADME, organism-based; settings: in vivo
[13] = target: Sodium-dependent dopamine transporter (Homo sapiens, UniProt Q01959); experiment: Inhibition of DAT (unknown origin) at 10 uM relative to control
Sodium-dependent dopamine transporter, sequence (Q01959 whole entry): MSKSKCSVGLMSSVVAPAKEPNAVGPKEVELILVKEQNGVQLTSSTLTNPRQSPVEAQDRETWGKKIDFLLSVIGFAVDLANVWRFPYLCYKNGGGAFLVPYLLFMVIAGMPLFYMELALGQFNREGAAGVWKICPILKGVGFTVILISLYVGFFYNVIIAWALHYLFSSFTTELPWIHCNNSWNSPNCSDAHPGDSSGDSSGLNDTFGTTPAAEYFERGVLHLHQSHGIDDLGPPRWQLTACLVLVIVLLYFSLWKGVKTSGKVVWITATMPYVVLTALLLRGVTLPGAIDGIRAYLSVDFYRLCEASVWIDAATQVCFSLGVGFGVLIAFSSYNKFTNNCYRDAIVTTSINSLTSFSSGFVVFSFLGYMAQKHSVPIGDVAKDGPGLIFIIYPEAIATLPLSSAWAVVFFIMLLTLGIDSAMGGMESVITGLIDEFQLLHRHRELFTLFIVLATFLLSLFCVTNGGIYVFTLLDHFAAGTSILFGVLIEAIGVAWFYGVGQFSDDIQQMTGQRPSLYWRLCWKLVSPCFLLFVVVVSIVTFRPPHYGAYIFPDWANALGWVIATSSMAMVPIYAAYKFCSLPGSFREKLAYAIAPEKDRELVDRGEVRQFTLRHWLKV

[14] = Metabolic stability in mouse liver microsome assessed as half life in presence of NADPH measured upto 60 mins by LC-MS/MS analysis; assay type: ADME; settings: liver microsomes
[15] = Tmax in ICR mouse at 10 mg/kg, po measured upto 24 hrs by LC-MS/MS analysis; assay type: ADME, organism-based; settings: in vivo
[16] = Half life in ICR mouse at 10 mg/kg, ip measured upto 24 hrs by LC-MS/MS analysis; assay type: ADME, organism-based; settings: in vivo
[17] = Half life in ICR mouse at 10 mg/kg, po measured upto 24 hrs by LC-MS/MS analysis; assay type: ADME, organism-based; settings: in vivo
[18] = Metabolic stability in human liver microsome assessed as hepatic clearance in presence of NADPH measured upto 60 mins by LC-MS/MS analysis; assay type: ADME; settings: liver microsomes
[19] = Hepatotoxicity against human HepG2 cells assessed as inhibition of cell proliferation incubated for 48 hrs by celltiter-luminescence assay; assay type: toxicity, cell-based
[20] = Tmax in ICR mouse at 10 mg/kg, ip measured upto 24 hrs by LC-MS/MS analysis; assay type: ADME, organism-based; settings: in vivo
[21] = AUC (0 to t) in ICR mouse at 10 mg/kg, ip measured upto 24 hrs by LC-MS/MS analysis; assay type: ADME, organism-based; settings: in vivo
[22] = Cmax in ICR mouse at 10 mg/kg, po measured upto 24 hrs by LC-MS/MS analysis; assay type: ADME, organism-based; settings: in vivo
[23] = target: Voltage-gated inwardly rectifying potassium channel KCNH2 (Homo sapiens, UniProt Q12809); experiment: Inhibition of hERG expressed in CHO cells assessed as inhibition of channel current at holding potential of -80 mV by automated patch clamp method; assay type: toxicity, cell-based
Voltage-gated inwardly rectifying potassium channel KCNH2, sequence (Q12809 whole entry): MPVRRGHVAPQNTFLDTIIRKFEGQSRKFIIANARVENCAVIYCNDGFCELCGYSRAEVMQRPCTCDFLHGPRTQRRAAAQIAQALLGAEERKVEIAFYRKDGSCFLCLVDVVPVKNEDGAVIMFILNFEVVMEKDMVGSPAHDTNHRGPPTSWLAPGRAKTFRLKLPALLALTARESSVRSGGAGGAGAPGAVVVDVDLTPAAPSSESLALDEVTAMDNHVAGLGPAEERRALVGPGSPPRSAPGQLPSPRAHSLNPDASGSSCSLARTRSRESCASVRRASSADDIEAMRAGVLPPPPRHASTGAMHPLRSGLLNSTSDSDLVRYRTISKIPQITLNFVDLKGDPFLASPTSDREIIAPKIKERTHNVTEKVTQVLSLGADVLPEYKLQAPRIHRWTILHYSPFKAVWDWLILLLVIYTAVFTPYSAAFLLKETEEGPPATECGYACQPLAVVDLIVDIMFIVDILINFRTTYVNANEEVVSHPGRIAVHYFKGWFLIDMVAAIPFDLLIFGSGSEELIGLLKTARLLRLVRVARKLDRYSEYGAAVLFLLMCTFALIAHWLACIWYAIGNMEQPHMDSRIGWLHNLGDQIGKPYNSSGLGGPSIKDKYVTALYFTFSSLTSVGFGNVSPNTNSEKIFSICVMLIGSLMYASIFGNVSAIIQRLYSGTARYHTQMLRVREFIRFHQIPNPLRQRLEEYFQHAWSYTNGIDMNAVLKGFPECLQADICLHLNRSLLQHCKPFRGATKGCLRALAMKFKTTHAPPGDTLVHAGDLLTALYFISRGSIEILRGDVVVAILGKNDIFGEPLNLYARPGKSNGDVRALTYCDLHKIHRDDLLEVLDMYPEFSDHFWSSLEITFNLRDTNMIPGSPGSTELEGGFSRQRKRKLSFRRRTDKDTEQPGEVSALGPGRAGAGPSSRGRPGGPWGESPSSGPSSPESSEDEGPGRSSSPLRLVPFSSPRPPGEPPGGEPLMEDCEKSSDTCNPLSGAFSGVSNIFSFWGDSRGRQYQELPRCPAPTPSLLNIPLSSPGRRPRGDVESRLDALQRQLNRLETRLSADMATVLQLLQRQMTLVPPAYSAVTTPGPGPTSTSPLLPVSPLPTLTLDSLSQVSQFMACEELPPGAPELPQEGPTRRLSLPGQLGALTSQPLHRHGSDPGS

[24] = target: T1, Sodium-dependent noradrenaline transporter (Homo sapiens, UniProt P23975); experiment: Inhibition of NET (unknown origin) at 10 uM relative to control
T1 sequence (P23975 whole entry): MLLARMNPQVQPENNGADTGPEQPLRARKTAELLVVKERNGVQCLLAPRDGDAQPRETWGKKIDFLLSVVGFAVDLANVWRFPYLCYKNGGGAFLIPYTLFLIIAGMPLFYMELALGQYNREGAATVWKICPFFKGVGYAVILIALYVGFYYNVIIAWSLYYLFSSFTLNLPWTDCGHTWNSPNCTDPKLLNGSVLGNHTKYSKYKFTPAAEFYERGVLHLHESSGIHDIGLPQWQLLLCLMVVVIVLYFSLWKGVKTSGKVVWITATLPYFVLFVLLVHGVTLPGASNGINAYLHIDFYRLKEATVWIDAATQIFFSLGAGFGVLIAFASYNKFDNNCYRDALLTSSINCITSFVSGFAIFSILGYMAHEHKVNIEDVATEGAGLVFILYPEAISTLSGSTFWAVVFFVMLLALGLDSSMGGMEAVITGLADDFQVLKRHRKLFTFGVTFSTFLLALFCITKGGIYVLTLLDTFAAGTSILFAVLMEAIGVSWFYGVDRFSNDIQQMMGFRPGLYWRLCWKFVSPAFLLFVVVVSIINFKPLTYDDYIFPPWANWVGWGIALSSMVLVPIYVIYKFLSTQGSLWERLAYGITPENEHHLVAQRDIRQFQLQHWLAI

[25] = target: Glutamate NMDA receptor; GRIN1/GRIN2A (Homo sapiens, UniProt Q05586+Q12879); experiment: Antagonist activity at human GluN1/GluN2A NMDA receptor expressed in HEK293 cells assessed as reduction in glutamate induced current at -70 mV holding potential by whole-cell patch clamp technique; assay type: cell-based
Glutamate NMDA receptor; GRIN1/GRIN2A, sequence (Q12879 whole entry, other chains not shown): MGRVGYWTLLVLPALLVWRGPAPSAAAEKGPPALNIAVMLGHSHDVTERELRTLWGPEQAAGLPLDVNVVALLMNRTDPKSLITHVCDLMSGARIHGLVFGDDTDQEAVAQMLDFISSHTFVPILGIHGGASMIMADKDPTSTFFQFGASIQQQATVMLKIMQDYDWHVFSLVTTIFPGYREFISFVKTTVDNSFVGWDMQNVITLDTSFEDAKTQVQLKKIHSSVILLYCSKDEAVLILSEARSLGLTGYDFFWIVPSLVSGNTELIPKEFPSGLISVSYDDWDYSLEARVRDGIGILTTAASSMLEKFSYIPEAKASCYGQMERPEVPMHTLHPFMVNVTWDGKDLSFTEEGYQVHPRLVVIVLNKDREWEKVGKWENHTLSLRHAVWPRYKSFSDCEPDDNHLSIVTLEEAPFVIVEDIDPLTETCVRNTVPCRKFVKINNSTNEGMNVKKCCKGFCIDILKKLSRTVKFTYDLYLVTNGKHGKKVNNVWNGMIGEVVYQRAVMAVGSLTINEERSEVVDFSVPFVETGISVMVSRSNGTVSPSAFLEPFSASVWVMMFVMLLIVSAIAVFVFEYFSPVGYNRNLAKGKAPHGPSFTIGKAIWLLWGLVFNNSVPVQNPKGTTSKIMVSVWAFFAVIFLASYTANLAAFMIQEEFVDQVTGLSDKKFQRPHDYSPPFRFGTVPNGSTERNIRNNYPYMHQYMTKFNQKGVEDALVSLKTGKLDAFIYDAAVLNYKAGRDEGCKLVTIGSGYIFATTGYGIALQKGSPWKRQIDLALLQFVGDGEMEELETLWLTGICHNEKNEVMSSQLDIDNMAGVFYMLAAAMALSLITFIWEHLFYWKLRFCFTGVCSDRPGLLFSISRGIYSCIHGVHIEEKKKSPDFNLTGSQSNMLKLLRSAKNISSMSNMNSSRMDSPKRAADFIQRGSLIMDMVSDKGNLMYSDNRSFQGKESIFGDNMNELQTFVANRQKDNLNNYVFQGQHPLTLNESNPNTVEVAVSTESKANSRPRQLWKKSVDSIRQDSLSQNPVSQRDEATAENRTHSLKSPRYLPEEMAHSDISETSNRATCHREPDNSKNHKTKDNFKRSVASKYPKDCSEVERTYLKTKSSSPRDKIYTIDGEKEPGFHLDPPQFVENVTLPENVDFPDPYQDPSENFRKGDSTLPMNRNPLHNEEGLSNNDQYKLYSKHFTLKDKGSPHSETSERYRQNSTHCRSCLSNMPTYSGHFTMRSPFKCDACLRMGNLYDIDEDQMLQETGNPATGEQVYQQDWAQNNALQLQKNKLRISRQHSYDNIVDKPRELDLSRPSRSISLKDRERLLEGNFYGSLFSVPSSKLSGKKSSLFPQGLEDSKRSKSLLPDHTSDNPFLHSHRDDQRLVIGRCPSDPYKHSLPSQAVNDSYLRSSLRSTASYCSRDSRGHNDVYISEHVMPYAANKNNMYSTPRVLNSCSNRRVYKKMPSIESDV

[26] = MRT (0 to infinity) in ICR mouse at 10 mg/kg, ip measured upto 24 hrs by LC-MS/MS analysis; assay type: ADME, organism-based; settings: in vivo
[27] = AUC (0 to infinity) in ICR mouse at 10 mg/kg, ip measured upto 24 hrs by LC-MS/MS analysis; assay type: ADME, organism-based; settings: in vivo
[28] = Cmax in ICR mouse at 10 mg/kg, ip measured upto 24 hrs by LC-MS/MS analysis; assay type: ADME, organism-based; settings: in vivo
[29] = Metabolic stability in human liver microsome assessed as intrinsic clearance in presence of NADPH measured upto 60 mins by LC-MS/MS analysis; assay type: ADME; settings: liver microsomes, read-out: CLH
[30] = Selectivity index, ratio of IC50 for inhibition of human GluN1/GluN2A NMDA receptor expressed in HEK293 cells to IC50 for inhibition of SERT (unknown origin); assay type: cell-based
[31] = Metabolic stability in mouse liver microsome assessed as hepatic clearance in presence of NADPH measured upto 60 mins by LC-MS/MS analysis; assay type: ADME; settings: liver microsomes
Mu-type opioid receptor = Mu-type opioid receptor (Homo sapiens, UniProt P35372); experiment: Agonist activity at human mu-opioid receptor stably expressed in CHO cells assessed as inhibition of forskolin-induced cAMP accumulation at 30 uM preincubated with compound for 10 mins followed by forskolin induction and measured after 30 mins by LANCE Ultra cAMP assay relative to control; assay type: functional, cell-based; settings: time 40.0 min
Mu-type opioid receptor, sequence (P35372 whole entry): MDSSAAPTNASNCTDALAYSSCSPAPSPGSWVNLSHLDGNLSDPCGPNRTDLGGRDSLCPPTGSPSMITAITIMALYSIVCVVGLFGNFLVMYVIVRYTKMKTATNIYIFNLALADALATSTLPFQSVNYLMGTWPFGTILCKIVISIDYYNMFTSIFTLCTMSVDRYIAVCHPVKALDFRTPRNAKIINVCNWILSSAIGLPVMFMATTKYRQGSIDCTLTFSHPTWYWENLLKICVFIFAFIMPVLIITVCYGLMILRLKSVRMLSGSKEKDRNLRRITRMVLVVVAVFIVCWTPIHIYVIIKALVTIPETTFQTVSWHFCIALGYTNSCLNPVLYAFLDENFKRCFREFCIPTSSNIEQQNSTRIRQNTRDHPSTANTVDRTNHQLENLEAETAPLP

[32] = Metabolic stability in mouse liver microsome assessed as hepatic extraction ratio in presence of NADPH measured upto 60 mins by LC-MS/MS analysis; assay type: ADME; settings: liver microsomes, read-out: ERH
HEK293 [33] = experiment: Nephrotoxicity against human HEK293 cells assessed as reduction in cell viability at 200 uM incubated for 48 hrs by celltiter-luminescence assay; assay type: toxicity, cell-based; settings: hek293, 48 h
Mus musculus [34] = experiment: Antidepressant activity in C57BL/6J mouse assessed as reduction in of immobility time at 10 to 30 mg/kg, po in presence of quinidine by forced swim test; assay type: functional, organism-based; settings: dose 10-30 mg/kg
[35] = Hepatotoxicity against human HepG2 cells assessed as reduction in cell viability at 50 uM incubated for 48 hrs by celltiter-luminescence assay; assay type: toxicity, cell-based; settings: hepg2, 48 h
Mus musculus [36] = experiment: Antidepressant activity in C57BL/6J mouse assessed as reduction in of immobility time at 10 to 30 mg/kg, po by forced swim test; assay type: functional, organism-based; settings: dose 10-30 mg/kg
[37] = target: T1, Sodium-dependent noradrenaline transporter; experiment: Inhibition of human NET

Sodium-dependent serotonin transporter, sequence (P31645 whole entry): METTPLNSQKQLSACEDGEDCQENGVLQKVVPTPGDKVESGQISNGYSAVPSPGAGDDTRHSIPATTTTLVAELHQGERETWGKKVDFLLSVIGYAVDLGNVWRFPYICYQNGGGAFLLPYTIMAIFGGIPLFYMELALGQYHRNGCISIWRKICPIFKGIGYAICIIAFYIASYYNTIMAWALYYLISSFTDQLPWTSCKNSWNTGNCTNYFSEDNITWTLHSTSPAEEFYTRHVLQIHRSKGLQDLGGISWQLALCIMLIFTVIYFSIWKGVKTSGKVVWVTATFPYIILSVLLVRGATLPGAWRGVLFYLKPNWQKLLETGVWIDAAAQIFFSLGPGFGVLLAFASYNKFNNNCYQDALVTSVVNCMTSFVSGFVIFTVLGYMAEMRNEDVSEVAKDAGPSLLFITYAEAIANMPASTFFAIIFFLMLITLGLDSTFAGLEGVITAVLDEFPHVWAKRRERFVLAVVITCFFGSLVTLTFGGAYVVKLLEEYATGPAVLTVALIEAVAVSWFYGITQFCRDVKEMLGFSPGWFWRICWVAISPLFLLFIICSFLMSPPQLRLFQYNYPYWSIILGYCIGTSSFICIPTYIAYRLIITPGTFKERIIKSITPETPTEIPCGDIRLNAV

| Structure (SMILES) | AUC(0-inf) [3] [ng·h/mL] | AUC(0-t) at 24 h [4] [ng·h/mL] | IC50 at 48 h [9] [µM] | half-life [10] [min] | CLint scaled [11] [mL/min/kg] | MRT last at 24 h [12] [h] | inhibition [13] | half-life [14] [min] | Tmax [15] [min] | half-life [16] [min] | half-life [17] [min] | CLhep predicted [18] [mL/min/kg] | IC50 at 48 h [19] [µM] | Tmax [20] [min] | AUC(0-t) at 24 h [21] [ng·h/mL] | Cmax [22] [ng/mL] | IC50 [23] [µM] | IC50 [25] [nM] | MRT inf [26] [h] | AUC(0-inf) [27] [ng·h/mL] | other results |
| --- | --- | --- | --- | --- | --- | --- | --- | --- | --- | --- | --- | --- | --- | --- | --- | --- | --- | --- | --- | --- | --- |
| CN1CC[C@@]23CCCC[C@@H]2[C@@H]1Cc1ccc(N)cc13 | 2720 | 2710 | > 200 | 125 | 68.4 | 2.45 | 11% | 137 | 25.2 | 175 | 194 | 11 | > 200 | 4.8 | 2520 | 1380 | 22.1 | 3500 | 2.64 | 2520 | IC50 [1]: 1.04 mM; Activity (HEK293 [2]): Non-toxic; hepatic extraction ratio at 1 h [5]: 0.525; Activity [6]: Non-toxic; Activity (Mus musculus [7]): Active; Activity (Mus musculus [8]): Dose-dependent-effect; inhibition [24]: 4%; Cmax [28]: 1360 ng/mL; CLint scaled [29]: 23.2 mL/min/kg; Ratio IC50 [30]: 3.35; CLhep predicted [31]: 38.9 mL/min/kg; inhibition (Mu-type opioid receptor): 11%; hepatic extraction ratio at 1 h [32]: 0.423 |
| COc1ccc2c(c1)[C@]13CCCC[C@@H]1[C@H](C2)N(C)CC3 [DEXTROMETHORPHAN] | 207 | 198 | > 200 | 139 | 360 | 5.1 | inactive | 26 | 49.8 | 116 | 190 | 10.5 | > 200 | 8.4 | 817 | 57.7 | 13 | 1040 | 1.33 | 820 | Activity (HEK293 [33]): Toxic; Activity (Mus musculus [34]): Active; Activity [35]: Non-toxic; Activity (Mus musculus [36]): inactive; Cmax [28]: 720 ng/mL; CLint scaled [29]: 20.9 mL/min/kg; CLhep predicted [31]: 72 mL/min/kg; inhibition (Mu-type opioid receptor): 5%; IC50 [37]: […] |
